Source: patent publication US20170081323A1 (priority 2015, published 2017)

The compounds below were run on influenza A virus (IAV) A/Aichi/2/68 (H3N2) (assay: microbe, parasite or virus in culture). Conditions: H3N2, MDCK, 48 h, read-out: CPE.
Format: cell-based, influenza A virus A/Aichi/2/68 (H3N2) on MDCK cells

Row | SMILES | IC50 [µM]
1 | O=c1[nH]nc2ccc(Oc3ccccc3)cn12 | > 50
2 | O=c1[nH]nc2c(-c3ccccc3)cccn12 | > 50
3 | O=c1[nH]nc2ccc(-c3ccccc3)c(OCC3CC3)n12 | > 50
4 | O=c1[nH]nc2cc(-c3ccccc3)ccn12 | > 50
5 | O=c1[nH]nc2n1C(OCC1CC1)CCC2 (centres unmarked) | > 50
6 | O=c1[nH]nc2ccc(-c3ccccc3-c3ccncc3)cn12 | > 50
7 | O=c1[nH]nc2ccc(-c3ccccc3)cn12 | > 50
8 | O=c1[nH]nc2ccc(-c3ccccc3-c3ccccc3)cn12 | > 50
9 | O=C1NNC2CCCC(CCC3CC3)N12 (centres unmarked) | > 50
10 | O=c1[nH]nc2ccc(-c3ccccc3Cl)cn12 | > 50
11 | O=c1[nH]nc2ccc(-c3cccc(Cl)c3)cn12 | > 50
12 | O=c1[nH]nc2ccc(-c3cccc(-c4ccccc4)c3)cn12 | > 50
13 | O=c1[nH]nc2ccc(Br)cn12 | > 50
14 | O=c1[nH]nc2cccc(-c3ccccc3)n12 | > 50
15 | O=c1[nH]nc2ccc(-c3ccccc3-c3cccc(F)c3)cn12 | > 50
16 | O=c1[nH]nc2ccc(-c3ccccc3Cl)c(Oc3ccccc3)n12 | > 50
17 | O=c1[nH]nc2cccc(Oc3ccccc3)n12 | > 50
18 | O=c1[nH]nc2ccc(-c3cccc(F)c3)cn12 | > 50
19 | O=c1[nH]nc2ccc(-c3cccc4ccccc34)cn12 | > 50
20 | O=c1[nH]nc2ccc(-c3cccc(F)c3F)cn12 | > 50
21 | O=c1[nH]nc2ccc(-c3ccc(-c4ccccc4)cc3)cn12 | > 50
22 | O=c1[nH]nc2cccc(C#CC3CC3)n12 | > 50
23 | O=c1[nH]nc2ccc(-c3ccc(Cl)cc3)cn12 | > 50
24 | O=c1[nH]nc2ccc(Br)c(Oc3ccccc3)n12 | > 50
25 | COc1ccc(-c2ccc3n[nH]c(=O)n3c2)c(Cl)c1 | > 50
26 | Cc1ccc(C)c(-c2ccc3n[nH]c(=O)n3c2)c1 | > 50
27 | O=c1[nH]nc2cccc(-c3ncccn3)n12 | > 50
28 | O=c1[nH]nc2ccc(-c3ccccc3Cl)c(OCC3CC3)n12 | > 50

Same assay, conditions: H3N2, MDCK, 48 h, read-out: CPE IC50

Row | SMILES | IC50 [µM]
29 | O=c1[nH]nc2ccc(-c3cccc(-c4c(F)cccc4F)c3)cn12 | 34.9
